Experimental findings from patent EP3336173A1, “A STRAIN OF A[…] APPLICATIONS THEREOF” (Infinitec Activos S.L., priority 2016, dated 2018) are described below.

The subject of this assay is Prostaglandin E2 (PGE2). The experiment in a line: Anti-inflammatory activity: PGE2 quantification by ELISA in cells stimulated by IL-1α. Type of assay: cell-based. The following applies: Cycloheximide 100 µg/ml; IL-1α (5 pM). How it is done: When cells are stimulated by an inflammatory agent PGE2 is synthesized de novo and released into the extracellular space. Thus quantification of PGE2 is used to asses the anti-inflammatory activity products.
In the present example the anti-inflammatory activity of the extract of example 2 was determined by quantification of PGE2 in cells stimulated by IL-1α using a kit for an enzyme-linked immunosorbent assay (ELISA). The kit used was Prostaglandin E2 EIA kit Item n° 514010 from Cayman Chemical.
Prostaglandin E2 assay is based on competition between the PGE2 to be determined and a fixed amount of added PGE2-acetylcholinesterase (AChE) conjugate (PGE2 tracer) for a limited amount of PGE2 monoclonal antibody. The amount of PGE2 tracer able to bind the PGE2 monoclonal antibody will be inversely proportional to the concentration of PGE2 in the well. Both the antibody-PGE2 complex and then antibody-PGE2 tracer complex bind to polyclonal goat anti-mouse IgG previously bound to the well. Then the plate is washed to remove any unbound reagent and Ellman's reagent is added to determine the amount of AChE bound to the well. […] The intensity of this color, determined by UV-Vis spectrophotometry, is proportional to the amount of PGE2 tracer bound […], which is inversely proportional to the amount of PGE2 present in the free well during incubation.
(In general: ELISA stands for enzyme-linked immunosorbent assay.)

Each structure is given as a SMILES string.

Broadly, the inhibition is the share of the control response that was lost under treatment.

`C[C@@H]1C[C@@H]([C@H](O)CC2CC(=O)NC(=O)C2)C(=O)[C@@H](C)C1` [Cycloheximide]: the “PGE2” value is 31.85 pg/mL and the inhibition at 100 µg/mL is 97.6%.
